Assay: Solubility of Ethylhexyl Triazone in solvents (visual assessment)
Assay type: physicochemical
Protocol: The solubility of Ethylhexyl Triazone in the systems indicated can be determined as follows:
The test substance is initially incorporated into the solvent (for example cosmetic emollient, as indicated in the table) at room temperature (about 20° C.-25° C.) with stirring in small beakers on a heatable magnetic stirrer (the stirring time here should not exceed about 30 min.). The assessment is carried out visually, i.e. it is checked whether a completely clear solution and without evident particles is present. The amounts, conditions and stirring times employed should be noted. If the substance is readily soluble, the concentration is increased by subsequent incorporation of further substance, for example by addition in 0.1 g steps with stirring. […] The assessment is carried out visually, if necessary with the aid of a microscope with lambda plate.

- solubility at room temperature (in Spectrasolv DMDA, room temperature (20° C. to 25° C.)): about 55 % by weight
- Ethylhexyl Triazone solubility at 25° C. (solvent C12-13 Alkyl Lactate): 22%
- Ethylhexyl Triazone solubility at 25° C. (solvent Di-C12-13 Alkyl Tartrate): 35%
- Ethylhexyl Triazone solubility at 25° C. (solvent Dioctyl Malate): 13%
- Ethylhexyl Triazone solubility at 25° C. (solvent Spectrasolv DMDA): about 55%
SMILES: CCCCC(CC)COC(=O)c1ccc(Nc2nc(Nc3ccc(C(=O)OCC(CC)CCCC)cc3)nc(Nc3ccc(C(=O)OCC(CC)CCCC)cc3)n2)cc1 (centres unmarked) [Ethylhexyl Triazone, 2,4,6-tris[anilino(p-carbo-2′-ethyl-1′-hexyloxy)]-1,3,5-triazine]

From patent US20170105910A1, “UV FILTER CAPSULE” (BASF SE, priority 2007, published 2017)
